Measured values as given in PMC10376326, “Novel Acylselenourea Derivatives: Dual Molecules with Anticancer and Radical Scavenging Activity” (Antioxidants, 2023).

Tests used:
[1] = DPPH radical scavenging assay; assay type: biochemical; settings: for DPPH Inhibitory%: acylselenourea analogs
Description: Different methods are available to quantify the antioxidant capacity of natural or novel molecules. Notable among these are the ABTS^•+ and DPPH^• methods, which measure the quenching efficiency in vitro for known concentrations of preformed radicals. In this work, the DPPH^• colorimetric assay was carried out. Measurements were recorded on a BioTeck PowerWave XS spectrophotometer (BioTeck Instruments, Winooski, VT, USA) and data were collected using KCJunior v.1.41. software (BioTeck Instruments, Winooski, VT, USA). Compounds with potent activity were selected to further determine their protective effect against ROS-induced cell death caused by H2O2.
DPPH colorimetric assay was performed to determine the in vitro radical scavenging activity of the acylselenourea derivatives. DPPH assay was performed as described by Svinyarov. For each acylselenourea, a stock solution of 1 mg/mL in dimethyl sulfoxide (DMSO) was made, and these solutions were used to prepare the different concentrations employed in the assay. The compounds were tested at two different concentrations (0.003 and 0.03 mg/mL). Intermediate solutions were prepared in methanol and a volume of 100 µL of each was added to each well of the plate. Then, 100 µL of DPPH^• (previously prepared at a concentration of 0.04 mg/mL in methanol and preserved in the dark) was added to the previous methanolic acylselenourea solutions. The discoloration of the purple radical to the yellow reduced form was followed at 517 nm at different time points (0, 5, 15, 30, 60, 90, and 120 min). Ascorbic acid and trolox were used as positive controls. All measurements were carried out in triplicate. Results are expressed as the percentage of the radicals scavenged, calculated using the following formula: (1) % DPPH radical scavenging=Acontrol - Asample/Acontrol × 100 where Acontrol refers to the absorbance of the negative control and Asample refers to the absorbance of the tested compounds. Results are expressed as percentage of DPPH radical scavenging ± SD.

DU-145 cells = assay: Protective effects against H2O2-induced oxidative stress in DU-145 cells (MTT); assay type: cell-based, human; settings: increase-fold of cell survival
Description: Cells were treated with the selected compounds and then oxidative damage to DU-145 cells was induced using different concentrations of H2O2 (200, 250 and 300 µM), and cell viability was assessed by the MTT method. Briefly, 2.5 × 10^4 DU-145 cells per well were added in 96-well plates. After 24 h of incubation, DMSO, 1.I, 2.I, 5.I, 7.II, 10.II, and ascorbic acid were added to each well at two different concentrations (0.0015 mg/mL and 0.0003 mg/mL) and incubated for 1 h. After that, H2O2 was added at the concentrations of 200, 250, and 300 µM, and the cells were incubated for 12 h to induce cell damage. MTT assay was used to measure cell viability. For each treatment, the mean cell viability was calculated from three independent experiments. The DMSO-treated controls were assigned with a cell viability value of 100% (Vcontrol). The results are expressed as a cell growth inhibition % caused by H2O2 and the increased fold of cell survival, as follows: • Cells without compounds, only treated with H2O2: (2) % Cell growth inhibition=Acontrol - Asample/Acontrol × 100
• Cells treated with compounds and H2O2:
(3) % Cell growth inhibition=Asample (compound) - Asample (compound+H2O2)/Acontrol × 100
(4) Increase-fold of cell survival=% cell growth inhibition (H2O2)/% cell growth inhibition (compound+ H2O2)
The standard error of the mean (SEM) was calculated in at least three independent experiments performed in quadruplicates.

[2] = test system: MDA-MB-231 (breast) cancer cell line; assay: MTT cell viability assay, MDA-MB-231; assay type: cell-based, human; settings: Homo sapiens, MDA-MB-231, 48 h; for activity at 10 µM: read-out: Cell growth %, MDA-MB-231, 10 µM, 48 h, MTT; for activity at 50 µM: read-out: Cell growth %, MDA-MB-231, 50 µM, 48 h, MTT
Description: (§1) Cell lines were purchased from the American Type Culture Collection (ATCC). Cell lines MDA-MB-231, HTB-54, DU-145, and BEAS-2B were cultured in RPMI 1640 medium (Gibco, Thermo Fisher Scientific, Gaithersburg, MD, USA) supplemented with 10% fetal bovine serum (FBS; Gibco), 100 units/mL penicillin, and […] streptomycin (Gibco). HT-29 cell line was grown in McCoy’s 5A (Gibco), 10% FBS, 100 units/mL penicillin, and 100 μg/mL streptomycin. Cells were maintained at 37 °C and 5% CO2. The culture medium was changed every three days.
(§2) The cell viability of each compound was measured by MTT colorimetric assay. Each compound was dissolved in DMSO at a concentration of 0.01 M. Each compound was tested at two different concentrations (10 and 50 µM) in MDA-MB-231 (breast), HTB-54 (lung), DU-145 (prostate), and HT-29 (colon) human cancer cell lines. Serial dilutions were prepared with supplemented culture medium. […] IC50 and selectivity indexes (SI) were determined.
(§3) Briefly, 1 × 10^4 tumor cells per well were grown in 96-well plates for 24 h. Then, these cells were incubated for 48 h with either DMSO (control) or a different concentration of each of the tested compounds. The cell viability was determined by adding 20 μL of MTT two hours and a half before the termination point. After this time, the culture medium was removed. The resulting formazan crystals were dissolved in 50 μL of DMSO, and the absorbance was measured at 570 nm. Results are expressed as % cell growth. The data were obtained from at least three independent experiments performed in quadruplicate.

[3] = test system: HTB-54 (lung) cancer cell line; assay: MTT cell viability assay, HTB-54; assay type: cell-based, human; settings: Homo sapiens, HTB-54, 48 h; for activity at 10 µM: read-out: Cell growth %, HTB-54, 10 µM, 48 h, MTT; for activity at 50 µM: read-out: Cell growth %, HTB-54, 50 µM, 48 h, MTT
Description: as §1, §2, §3

[4] = test system: HT-29 (colon) cancer cell line; assay: MTT cell viability assay, HT-29; assay type: cell-based; settings: Homo sapiens, HT-29, 48 h, read-out: Cell growth %; for activity at 10 µM: HT-29, 10 µM; for activity at 50 µM: HT-29, 50 µM
Description: as §1, §2, §3

[5] = test system: DU-145 (prostate) cancer cell line; assay: MTT cell viability assay, DU-145; assay type: cell-based, human; settings: Homo sapiens, DU-145, 48 h; for activity at 10 µM: read-out: Cell growth %, DU-145, 10 µM, 48 h, MTT; for activity at 50 µM: read-out: Cell growth %, DU-145, 50 µM, 48 h, MTT
Description: as §1, §2, §3

O=C1O[C@H]([C@@H](O)CO)C(O)=C1O [Asc. Acid, ascorbic acid, reference compound]
inhibition ([1]; 0.003 mg/mL, 0 min): 33.5 ± 0.5%
inhibition ([1]; 0.003 mg/mL, 5 min): 33.6 ± 0.4%
inhibition ([1]; 0.003 mg/mL, 15 min): 34.5 ± 1.6%
inhibition ([1]; 0.003 mg/mL, 30 min): 34.1 ± 1.1%
inhibition ([1]; 0.003 mg/mL, 60 min): 34 ± 0.9%
inhibition ([1]; 0.003 mg/mL, 90 min): 34 ± 0.8%
inhibition ([1]; 0.003 mg/mL, 120 min): 34 ± 0.7%
inhibition ([1]; 0.03 mg/mL, 0 min): 96.4 ± 0.2%
inhibition ([1]; 0.03 mg/mL, 5 min): 96.4 ± 0.1%
inhibition ([1]; 0.03 mg/mL, 15 min): 96.9 ± 0.5%
inhibition ([1]; 0.03 mg/mL, 30 min): 96.9 ± 0.5%
inhibition ([1]; 0.03 mg/mL, 60 min): 96.6 ± 0.1%
inhibition ([1]; 0.03 mg/mL, 90 min): 96.6 ± 0.1%
inhibition ([1]; 0.03 mg/mL, 120 min): 96.6 ± 0.1%
Increase-fold (DU-145 cells; compound 0.0003 mg/mL, 200 µM H2O2, DU-145): 4.2 ± 0.4
Increase-fold (DU-145 cells; compound 0.0003 mg/mL, 250 µM H2O2, DU-145): 3.1 ± 0.7
Increase-fold (DU-145 cells; compound 0.0003 mg/mL, 300 µM H2O2, DU-145): 2.2 ± 0.1
Increase-fold (DU-145 cells; compound 0.0015 mg/mL, 200 µM H2O2, DU-145): 3.6 ± 0.3
Increase-fold (DU-145 cells; compound 0.0015 mg/mL, 250 µM H2O2, DU-145): 2.9 ± 0.7
Increase-fold (DU-145 cells; compound 0.0015 mg/mL, 300 µM H2O2, DU-145): 1.5 ± 0.2

C#CCNC(=[Se])NC(=O)c1ccco1 [Compound 1.III, N-(prop-2-in-1-ylcarbamoselenoyl)furan-2-carboxamide]
activity at 10 µM [2]: 66.3 ± 16.7%
activity at 50 µM [2]: 17.6 ± 9.3%
inhibition ([1]; 0.003 mg/mL, 0 min): 1.5 ± 0.7%
inhibition ([1]; 0.003 mg/mL, 5 min): 3.4 ± 0.6%
inhibition ([1]; 0.003 mg/mL, 15 min): 4.9 ± 0.7%
inhibition ([1]; 0.003 mg/mL, 30 min): 6.5 ± 0.7%
inhibition ([1]; 0.003 mg/mL, 60 min): 8.5 ± 1%
inhibition ([1]; 0.003 mg/mL, 90 min): 9.6 ± 0.9%
inhibition ([1]; 0.003 mg/mL, 120 min): 10 ± 0.8%
inhibition ([1]; 0.03 mg/mL, 0 min): 11.8 ± 1.7%
inhibition ([1]; 0.03 mg/mL, 5 min): 15.2 ± 4.4%
inhibition ([1]; 0.03 mg/mL, 15 min): 23.5 ± 3.9%
inhibition ([1]; 0.03 mg/mL, 30 min): 31.2 ± 3.7%
inhibition ([1]; 0.03 mg/mL, 60 min): 40.9 ± 4.3%
inhibition ([1]; 0.03 mg/mL, 120 min): 48.1 ± 0.4%
DPPH Inhibitory% ([1]; 0.03 mg/mL, 90 min): 42.6 ± 0.6%
activity at 10 µM [3]: 76 ± 4.8%
activity at 50 µM [3]: 48 ± 4.2%
activity at 10 µM [4]: 84 ± 16.8%
activity at 50 µM [4]: 17.2 ± 4.2%
activity at 10 µM [5]: 42.4 ± 4.8%
activity at 50 µM [5]: 15.2 ± 1.2%

C=CCNC(=[Se])NC(=O)c1cccs1 [Compound 2.II, N-(allylcarbamoselenoyl)thiophene-2-carboxamide]
activity at 10 µM [2]: 79.9 ± 9.6%
activity at 50 µM [2]: 11.1 ± 5.9%
inhibition ([1]; 0.003 mg/mL, 0 min): 0%
inhibition ([1]; 0.003 mg/mL, 5 min): 6.4 ± 1.1%
inhibition ([1]; 0.003 mg/mL, 15 min): 10.4 ± 1.2%
inhibition ([1]; 0.003 mg/mL, 30 min): 13 ± 1.2%
inhibition ([1]; 0.003 mg/mL, 60 min): 15.2 ± 1.2%
inhibition ([1]; 0.003 mg/mL, 90 min): 16 ± 1.2%
inhibition ([1]; 0.003 mg/mL, 120 min): 16.3 ± 1.2%
time to reach the highest DPPH inhibition ([1]; 0.03 mg/mL): 60 min
inhibition ([1]; 0.03 mg/mL, 0 min): 24.4 ± 3%
inhibition ([1]; 0.03 mg/mL, 5 min): 60.7 ± 2.5%
inhibition ([1]; 0.03 mg/mL, 15 min): 75.8 ± 3.5%
inhibition ([1]; 0.03 mg/mL, 30 min): 87.6 ± 4%
inhibition ([1]; 0.03 mg/mL, 60 min): 96.7 ± 0.7%
DPPH Inhibitory% ([1]; 0.03 mg/mL, 90 min): 97.3 ± 0.8%
activity at 10 µM [3]: 35.9 ± 12.1%
activity at 50 µM [3]: 8.52 ± 4.8%
activity at 10 µM [4]: 107 ± 16.2%
activity at 50 µM [4]: 26.2 ± 5.1%
activity at 10 µM [5]: 63.4 ± 5.6%
activity at 50 µM [5]: 7.33 ± 4.6%
